Assay [1] deals with T1, human GR (Homo sapiens, UniProt P04150).
T1 sequence (P04150 1-777): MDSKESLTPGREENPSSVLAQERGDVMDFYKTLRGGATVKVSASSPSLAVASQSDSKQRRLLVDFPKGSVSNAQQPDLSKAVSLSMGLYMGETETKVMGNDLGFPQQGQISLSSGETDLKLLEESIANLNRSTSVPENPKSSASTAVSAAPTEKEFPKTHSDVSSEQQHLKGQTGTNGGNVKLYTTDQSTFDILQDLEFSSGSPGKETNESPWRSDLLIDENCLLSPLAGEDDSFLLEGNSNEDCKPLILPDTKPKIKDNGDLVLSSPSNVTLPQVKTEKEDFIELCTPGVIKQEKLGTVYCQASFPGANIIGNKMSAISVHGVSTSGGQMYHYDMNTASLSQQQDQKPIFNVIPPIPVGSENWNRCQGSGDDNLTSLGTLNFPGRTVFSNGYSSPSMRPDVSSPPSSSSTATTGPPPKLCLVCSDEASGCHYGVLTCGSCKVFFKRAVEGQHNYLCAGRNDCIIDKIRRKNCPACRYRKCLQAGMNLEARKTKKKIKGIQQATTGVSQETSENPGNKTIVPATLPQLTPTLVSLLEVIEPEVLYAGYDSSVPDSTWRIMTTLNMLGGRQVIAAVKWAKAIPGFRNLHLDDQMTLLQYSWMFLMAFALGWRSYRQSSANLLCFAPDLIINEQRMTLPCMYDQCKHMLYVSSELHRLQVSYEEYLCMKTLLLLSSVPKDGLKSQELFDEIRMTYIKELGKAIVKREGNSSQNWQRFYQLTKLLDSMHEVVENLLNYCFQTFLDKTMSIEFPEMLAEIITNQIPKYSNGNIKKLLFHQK
Description: Trans-Activation Modulation of Glucocorticoid Receptor (GRAMMER), MMTV-LUC reporter, agonist mode. Also on record: endogenous in cells. The settings on record: for Emax: A549, A549 cells, maximum activity, read-out: Transactivation A549 Cells GRAMMER Emax; for EC50: A549 cells, inflection point, read-out: Transactivation A549 Cells GRAMMER IP. Format: cell-based. The method in brief:
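Readout is luciferase from a modified MMTV LTR promoter after 24 h compound exposure alongside 10 nM dexamethasone (100% activity reference), DMSO ≤1%.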

Assay [2] deals with T1, human GR. Nature of the assay: Transrepression Assay (GITAR), TNFα-β-lactamase reporter in U937 cells. It counts as cell-based. Also on record: U937 cells contain an endogenous glucocorticoid receptor (GR); endogenous in cells; host or cells: U937 cells stably transfected with the TNF-alpha promoter/beta-lactamase reporter. The settings on record: for GITAR > GRAMM % SEP: GITAR Emax minus GRAMMER Emax; for EC50: U937 cells, inflection point, read-out: Transrepression U937 Cells GITAR IP. An outline of the steps: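 Read-out: CCF2-AM β-lactamase signal after 70–90 min loading at room temperature. U937 TNF-α-promoter reporter cells (endogenous GR), compound 30–45 min at 37 °C, then PMA 5 ng/ml + LPS 100 ng/ml final, ~18 hr. Normalised to 100 nM dexamethasone = 100%.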

Where [3] appears, read: U-937, U937 cells, maximum activity, read-out: Transrepression U937 Cells GITAR Emax.
The mark [4] stands for this setting: U-937, activity repressed by 100 nM dexamethasone alone set as 100%, read-out: maximal activity in the transrepression (GITAR) assay.

This is an account of results in patent publication US8299048B2, “Hexahydrocyclopentyl[f]indazole sulfonamides and derivatives thereof as selective glucocorticoid receptor modulators” (Merck Sharp & Dohme Corp., priority 2008, dated 2012).

`C[C@]12Cc3cnn(-c4ccc(F)cc4)c3C=C1CC[C@@H]2CN(CC1(O)CC1)S(=O)(=O)c1ccccc1F` [Example 200, 2-fluoro-N-{[(4αR,5S)-1-(4-fluorophenyl)-4α-methyl-1,4,4α,5,6,7-hexahydrocyclopenta[f]indazol-5-yl]methyl}-N-[(1-hydroxycyclopropyl)methyl]benzenesulfonamide]: the values for the Emax in assay [1], in assay [2] (setting [3]) and in assay [2] (setting [4]) were 57.5%, 85.9% and over 5%, respectively. In addition, the EC50 came out at 47.9 nM in assay [1] and 308 nM in assay [2]. For the same molecule, in assay [2], the “GITAR > GRAMM % SEP” value turned out to be 28.4%.

Turning to `C[C@]12Cc3cnn(-c4ccc(F)cc4)c3C=C1CC[C@@H]2CN(CC1(O)CCCCC1)S(=O)(=O)c1ccccc1F` [Example 201, 2-fluoro-N-{[(4αR,5S)-1-(4-fluorophenyl)-4α-methyl-1,4,4α,5,6,7-hexahydrocyclopenta[f]indazol-5-yl]methyl}-N-[(1-hydroxycyclohexyl)methyl]benzenesulfonamide], the figures for the Emax in assay [1], in assay [2] (setting [3]) and in assay [2] (setting [4]) were 47.8%, 69.5% and over 5%, respectively. For the same molecule, the values for the EC50 in assay [1] and in assay [2] were 88.4 nM and 486 nM, respectively. In addition, the “GITAR > GRAMM % SEP” value in assay [2] is on record as 21.7%.
